# Experimental data from patent US4672063A, “Antiallergic 5-alkyl-1-phenyl-2-piperazinoalkylpyrazolin-3-one compounds” (Kali-Chemie Pharma GmbH, priority 1984, dated 1987).
# Tests used:
# [1] = Acute 8-day toxicity, single i.p. application to male mice (LD50); settings: in vivo, ip, mouse i.p., 8 days
# Method: The acute 8-day toxicity is determined after a single application i.p. to male mice (body weight 18 to 22 g). The mortality is noted for 8 days. The results are calculated as LD50 values, i.e. the dose which kills 50% of the animals.
# [2] = tested on: carrageenin edema of the paw; test: Inhibition of carrageenin paw edema in the rat; assay type: in vivo, rat (Wistar); settings: po, 100 mg/kg p.o., 3 hours after irritant, read-out: % Inhibition of carageenin paw edema in the rat
# Method: Description of the test method to determine the inhibiting effect on the carrageenin edema of the paw in the rats according to the method of Winter et al (Proc. Soc. Exp. Biol. Med. 111 (1962) 544-547).
# Male Wistar rates with a body weight of approximately 120 to 140 g are used. A dose of 100 mg/kg of the test substance suspended in a volume of 0.5 ml per 100 g body weight of a 1% methyl cellulose solution Tylose®, American Hoechst Corp., Somerville, NJ) is administered per os.
# Only the Tylose® solution is administered to a control group. One hour later, to initiate the inflammation, 0.1 ml of a 1% suspension of carageenin (Satiagum® E) in an isotonic solution of sodium chloride are administered as an irritant by intraplantar injection into the right rear paw. An identical volume of isotonic sodium chloride solution is injected into the left rear paw. Both before and also 3 hours after the administration of the irritant, the volume of the individual rat paws is measured plethysmometrically and the volume of swelling of the paw after administration of carrageenin is determined compared with the paw which was only treated with sodium chloride solution. The inhibition of edema formation brought about by the test substances in the treated animals is indicated in percentage compared with the animals of the untreated control group.
# [3] = tested on: histamine-induced anaphylactoidal reaction; test: Inhibition of histamine-induced anaphylactoid cutaneous reaction in the rat, test substance p.o.; assay type: in vivo, rat (Sprague-Dawley); settings: po, 40 μg histamine intradermally, read-out: ED50 inhibiting effect, histamine-induced anaphylactoidal reaction
# Method: (§1) 2. Determining the inhibition of passive cutaneous anaphylaxis (PCA) and the inhibition of anaphylactoid cutaneous reactions induced by histamine and by serotonin.
# (§2) The determination of the inhibition of passive cutaneous anaphylaxis and the anaphylactoid cutaneous reactions induced by histamine and by serotonin, are carried out, as set forth below, according to the method of Martin and Baggiolini (Naunyn-Schmeiedeberg's Archives of Pharmacology 316 (1981) 186-189).
# (§3) For passive sensitizing against ovalbumin, male Sprague-Dawley rates (body weight 150 to 165 g) are injected intradermally on a shaved part of the back with 0.05 ml of a 1:2.5 dilution of antiovalbumin serum, rich in IgE, in physiological sodium chloride solution.
# (§4) 24 hours after the sensitizing, solutions of the test substances are administered orally to the rats. For comparison, a control group receives only the solvent.
# (§5) To trigger the histamine-induced and serotonin-induced anaphylactoid reactions of the skin, the animals are injected intradermally 30 minutes later on a second shaved part of the back with a solution of 40 μg histamine in 0.05 ml physiological sodium chloride solution and on a third shaved part of the back with a solution of 1 μg serotonin in 0.05 physiological sodium chloride solution.
# (§6) Immediately thereafter 1.25 mg (-~8 mg/kg) ovalbumin to trigger the anaphylactic reaction, and 4 mg (-~26.4 mg/kg) of a blue dye dissolved in 0.5 ml phosphate-buffered physiological sodium chloride solution are administered i.v. to the animals.
# (§7) After 30 minutes the animals are killed, the skin is removed and in the individual blue patches the quantity of dye contained therein is determined separately. According to the method of Mordelet-Danbrine et al (Therapie 29 (1974) 851-862) the dye is extracted from the individual patches in each case with 2.5 ml dimethylformamide at a temperature of 37° C. for 4 days and the quantity of dye obtained in each case in the extraction solution is determined by spectrophotometric measurement. The doses of the test substances which cause a 50% reduction in the dye concentration compared with the control group are calculated as ED50 values.
# [4] = tested on: peritonal mast cells of rats; test: In vitro inhibition of anaphylactically caused histamine release from peritonal mast cells of rats; assay type: cell-based, rat (Sprague-Dawley); settings: Rattus norvegicus, Mast cell; ovalbumin trigger, 1 minute preincubation at 37° C.; read-out: EC50 in vitro inhibiting effect with respect to anaphylactically caused histamine release from mast cells of the rat
# Method: 3. Determining the inhibiting effect in vitro on the release of histamine, caused anaphylactically, from peritonal mast cells of rats.
# In order to obtain the peritonal mast cells, Sprague-Dawley rats are killed by inhalation of ether and immediately after cessation of breathing has occurred, 15 ml of a cold solution of 1 mg/ml human serum albumin in phosphate-buffered sodium chloride solution are injected into the abdominal cavity. The peritonal fluid is then removed and the mast cells are separated therefrom by centrifuging and are suspended in phosphate-buffered sodium chloride solution, whereafter the suspension is adjusted to a mast cell concentration of 5×10^5 per ml.
# The mast cell suspension, divided up into samples each of 100 μl, is introduced into test-tubes and each sample, for passive sensitizing, is mixed with 100 μl of a 1:10 dilution of IgE-rich antiovalbumin serum in physiological sodium chloride solution (prepared according to the method described above) and is incubated for 30 minutes at a temperature of 37° C. (water bath). For the removal of unbonded IgE, the mast cells are then washed with 2 ml phosphate-buffered sodium chloride solution, centrifuged, and the supernatant fluid is discarded. Then the mast cells are incubated for 1 minute at 37° C. with 200 μl of a solution of the test substance in phosphate-buffered sodium chloride solution. A control group is only incubated with the same quantity of phosphate-buffered sodium chloride solution which is free of test substance.
# After an incubation period of 3 minutes at 37° C., the reaction is stopped by rapid cooling in an ice bath. Then centrifuging takes place, the supernatant fluid is decanted and the histamine content therein is determined directly, without further extraction, spectrofluorimetrically according to the method of Shore (J. Pharmac. Exp. Ther. 127 (1959) 182-186).
# For the extraction of the residual histamine still contained in the mast cells of the undecanted material, the latter is mixed with 2 ml phosphate-buffered sodium chloride solution and the suspension is heated in a boiling water bath. Then centrifuging takes place, the supernatant fluid is decanted and therein the residual histamine extracted from the mast cells is determined spectrofluorimetrically.
# For each sample, the quantity of the released histamine is calculated as percentage proportion of the overall quantity of histamine (=total of released histamine and residual histamine retained in the mast cells).
# The EC50 values are calculated to be those molar concentrations of the test substances in the respective test solutions which produce a 50% inhibition of the histamine release compared to the control group.
# [5] = tested on: passive cutaneous anaphylaxis; test: Inhibition of passive cutaneous anaphylaxis (PCA) in the rat, test substance p.o.; assay type: in vivo, rat (Sprague-Dawley); settings: po, 50% reduction in dye concentration vs control, read-out: ED50 inhibiting effect, passive cutaneous anaphylaxy
# Method: as §1
# For the preparation of an antiovalbumin serum, rich in IgE, which is used in the test, according to the method of Lehrer et al (J. Immunol. 116, (1976) 178-182) and Pauwels et al (Ann. Immunol. 230C., (1979), 49-58), Sprague-Dawley rats are sensitized by i.p. injection of 1 mg ovalbumin and 1 ml Bordetella pertussis suspension (vaxicoq, Merieux 3×10^10 organisms/ml). After 20 days the animals are given an injection of 10 mg ovalbumin in the same way, but without any additive. After a further 4 days, blood is removed from the animals and the blood is centrifuged. The antiserum thus obtained is stored at -20° C. and adjusted according to the method of Goose et al (Immunology 16 (1968) 749-760).
# as §2, §3, §4, §6, §7
# [6] = tested on: serotonin induced anaphylactoidal reaction; test: Inhibition of serotonin-induced anaphylactoid cutaneous reaction in the rat, test substance p.o.; assay type: in vivo, rat (Sprague-Dawley); settings: po, 1 μg serotonin intradermally, read-out: ED50 inhibiting effect, serotonin induced anaphylactoidal reaction
# Method: as §1, §2, §3, §4, §5, §6, §7
SMILES,LD50 at 192 h [1] [mg/kg],inhibition in vivo at 100 mg/kg [2] [%],ED50 [3] [mg/kg],EC50 [4] [µM],ED50 [5] [mg/kg],ED50 [6] [mg/kg]
"CCc1cc(=O)n(CCCN2CCN(c3ccc(F)cc3)CC2)n1-c1ccccc1 [Example 1, 5-ethyl-1-phenyl-2-{3-[4-(4-fluorophenyl)-piperazin-1-yl]-propyl}-pyrazolin-3-one]",117,52.8,4.7,50,2.5,2.6
Cc1cc(=O)n(CCCN2CCN(c3ccc(F)cc3)CC2)n1-c1ccccc1 [Example 8],–,56.4,–,–,–,–
CCCc1cc(=O)n(CCCN2CCN(c3ccc(F)cc3)CC2)n1-c1ccccc1 [Example 12],–,49.5,–,–,–,–
Cc1cc(=O)n(CCCN2CCN(c3ccc(F)cc3)CC2)n1-c1ccc([N+](=O)[O-])cc1 [Example 39],91.5,42.6,9.7,–,5.7,2.5
CCc1cc(=O)n(CCCN2CCN(c3ccc(F)cc3)CC2)n1-c1ccc([N+](=O)[O-])cc1 [Example 54],53.3,45.6,5.46,120,4.45,0.52
CC(=O)c1ccc(-n2c(C)cc(=O)n2CCCN2CCN(c3ccc(F)cc3)CC2)cc1 [Example 59],–,45.7,–,–,–,–
Cc1cc(=O)n(CCCN2CCN(c3ccc(F)cc3)CC2)n1-c1ccc(C#N)cc1 [Example 60],91.5,62.4,3.32,200,1.86,2.49
Cc1cc(=O)n(CCCN2CCN(c3ccc(F)cc3)CC2)n1-c1ccc(Cl)cc1 [Example 62],–,63.9,7.04,62,5.47,3.64
O=c1cc(C2CCCC2)n(-c2ccccc2)n1CCCN1CCN(c2ccc(F)cc2)CC1 [Example 63],–,42.2,–,–,–,–
